Test results taken from patent US20010053796A1, “Delta-aminolevulinic acid for prevention and treatment of infection microorganisms and parasite” (priority 2000, published 2001).
Read-outs that look alike come from different tables or passages of the source.

How the values were obtained:
Staphylococcus epidermis = experiment: Prevention effect for artificial infection (abdominal injection of bacteria); assay type: in vivo, Sebastes schlegeli; conditions: for Mortality during Cultivation: dead of 20 fish
Description: The water temperature was maintained at 20° C. (±2° C. ) throughout the experiment. […]
Bastardhalibut and Sebastes schlegeli were infected by […] Staphylococcus epidermis through abdominal injection with the same method of fish breeding; δ-aminolevulinic acid treatment and artificial carried out in Experiment 1 and 2. Each experimental fish was moved to fish tanks for monitoring and monitored for mortality according to infection for 2 weeks. […] The treated group, with δ-aminolevulinic acid by tank administraion method and oral administration method, has shown high viability.

Scutica = experiment: Extinction effect for Scutica in vitro; assay type: cell-based
Description: Scutica used in this experiment was taken from epidermal mucus of infected flatfish and suspended in HBSS. The suspension was kept at room temperature for 30 min and centrifuged at 800 rpm for 10 min. The supernatant was removed. The pellet was suspended in MEM-10 (minimum essential medium, 10% FBS, streptomycine, penicilin) and kept for 30 min, and then centrifuged in the same manner as above. The supernatant was removed and left imagoes was gained and made into imagoes suspension with certain number of imagoes by counting with the blood counting machine. The imagoes suspension was subcultured in vitro and inoculated to prepared FHM cell of certain number (2.5×10^5 cells/mL) and then cultured at 17° C. Before carrying out the experiment, by measuring the extinction effect for Scutica according to the concentration of δ-aminolevulinic acid and reaction time, optimum δ-aminolevulinic acid concentration and treatment time was examined for Scutica extermination. The Scutica culture solution cultured in FHM cell line was centrifuged at 3000 rpm for 5 min. The supernatant was removed and was added to PBS. It was washed 3 times to use for the experiment. 1.0 M δ-aminolevulinic acid solution made from sterilized 3rd distilled water was diluted by 2-fold up to 1000-fold (1.0 mM). Scutica was added to each well of 96-well microplate at an amount of 50 μL. Then, δ-aminolevulinic acid solution diluted by 2 steps were added and cultured for 120 min while the viability of Scutica was monitored. During the culture for 120 min, extinction time was measured in 10 min intervals, at each concentration. Between each inoculation, they were stirred for 5 min and were kept for 5 min. after reaction, 1% trypan blue which is staining solution for organism was added to each wells at an amount of 100 μL and mixed. In cultured Scutica with the diluted solution of δ-aminolevulinic acid, the number of parasites was counted by the blood counting machine, according to time. […] Through the 60 min-treatment, more than 50% of Scutica were extinct. At the actual concentration of 2 mM, about 50% of Scutica was extinct through 1 hour-treatment.

Question: How did the Viability (Staphylococcus epidermis; orally, 0.1 ppm in feed) turn out when `NCC(=O)CCC(=O)O` [δ-aminolevulinic acid] was run?
Answer: 50%

Question: What about the “Mortality during Cultivation” value (Staphylococcus epidermis; orally, 0.1 ppm in feed) of the same molecule?
Answer: 10

Question: And the Viability (Staphylococcus epidermis; orally, 1.0 ppm in feed)?
Answer: 50%

Question: What about the “Mortality during Cultivation” value (Staphylococcus epidermis; orally, 1.0 ppm in feed) of the same molecule?
Answer: 10

Question: And the Viability (Staphylococcus epidermis; orally, 10 ppm in feed)?
Answer: 75%

Question: And the “Mortality during Cultivation” value (Staphylococcus epidermis; orally, 10 ppm in feed)?
Answer: 5

Question: What about the Viability (Staphylococcus epidermis; orally, 100 ppm in feed) of the same molecule?
Answer: 80%

Question: What about the “Mortality during Cultivation” value (Staphylococcus epidermis; orally, 100 ppm in feed) of the same molecule?
Answer: 4

Question: What about the Viability (Staphylococcus epidermis; to fish tanks, 0.01 ppm) of the same molecule?
Answer: 55%

Question: And the “Mortality during Cultivation” value (Staphylococcus epidermis; to fish tanks, 0.01 ppm)?
Answer: 9

Question: And the Viability (Staphylococcus epidermis; to fish tanks, 0.1 ppm)?
Answer: 55%

Question: And the “Mortality during Cultivation” value (Staphylococcus epidermis; to fish tanks, 0.1 ppm)?
Answer: 9

Question: And the Viability (Staphylococcus epidermis; to fish tanks, 1.0 ppm)?
Answer: 80%

Question: What about the “Mortality during Cultivation” value (Staphylococcus epidermis; to fish tanks, 1.0 ppm) of the same molecule?
Answer: 4

Question: What about the Viability (Staphylococcus epidermis; to fish tanks, 10 ppm) of the same molecule?
Answer: 80%

Question: What about the “Mortality during Cultivation” value (Staphylococcus epidermis; to fish tanks, 10 ppm) of the same molecule?
Answer: 4

Question: And the Scutica extinct (Scutica; 500 mM to 2 mM, treatment of at minimum 2 hours)?
Answer: more than 90%

Question: And the “time to completely extinct Scutica” value (Scutica; 30˜15 mM)?
Answer: 20 min

Question: And the “time to completely extinct Scutica” value (Scutica; 500 to 60 mM)?
Answer: 10 min

Question: And the Scutica extinct (Scutica; 60 min-treatment, concentration not given)?
Answer: more than 50%

Question: What about the Scutica extinct (Scutica; actual concentration of 2 mM, 1 hour-treatment) of the same molecule?
Answer: about 50%

Question: What about the “time to completely extinct Scutica” value (Scutica; actual concentration of 8 mM) of the same molecule?
Answer: 60 min

Question: And the viability at 2000 µM (Scutica; read-out: Viability (%) of Scutica, 2.0 mM, reaction time 10)?
Answer: 50%

Question: And the viability at 2000 µM (Scutica; read-out: Viability (%) of Scutica, 2.0 mM, reaction time 20)?
Answer: 60%

Question: And the viability at 2000 µM (Scutica; read-out: Viability (%) of Scutica, 2.0 mM, reaction time 30)?
Answer: 40%

Question: And the viability at 2000 µM (Scutica; read-out: Viability (%) of Scutica, 2.0 mM, reaction time 40)?
Answer: 45%

Question: What about the viability at 2000 µM (Scutica; read-out: Viability (%) of Scutica, 2.0 mM, reaction time 50) of the same molecule?
Answer: 35%

Question: What about the viability at 2000 µM (Scutica; read-out: Viability (%) of Scutica, 2.0 mM, reaction time 60) of the same molecule?
Answer: 55%

Question: What about the viability at 2000 µM (Scutica; read-out: Viability (%) of Scutica, 2.0 mM, reaction time 70) of the same molecule?
Answer: 40%

Question: And the viability at 2000 µM (Scutica; read-out: Viability (%) of Scutica, 2.0 mM, reaction time 80)?
Answer: 40%

Question: What about the viability at 2000 µM (Scutica; read-out: Viability (%) of Scutica, 2.0 mM, reaction time 90) of the same molecule?
Answer: 35%

Question: What about the viability at 2000 µM (Scutica; read-out: Viability (%) of Scutica, 2.0 mM, reaction time 110) of the same molecule?
Answer: 40%

Question: And the viability at 2000 µM (Scutica; read-out: Viability (%) of Scutica, 2.0 mM, reaction time 120)?
Answer: 10%

Question: What about the viability at 4000 µM (Scutica; read-out: Viability (%) of Scutica, 4.0 mM, reaction time 10) of the same molecule?
Answer: 50%

Question: And the viability at 4000 µM (Scutica; read-out: Viability (%) of Scutica, 4.0 mM, reaction time 20)?
Answer: 50%

Question: And the viability at 4000 µM (Scutica; read-out: Viability (%) of Scutica, 4.0 mM, reaction time 30)?
Answer: 30%

Question: And the viability at 4000 µM (Scutica; read-out: Viability (%) of Scutica, 4.0 mM, reaction time 40)?
Answer: 30%

Question: What about the viability at 4000 µM (Scutica; read-out: Viability (%) of Scutica, 4.0 mM, reaction time 50) of the same molecule?
Answer: 20%

Question: And the viability at 4000 µM (Scutica; read-out: Viability (%) of Scutica, 4.0 mM, reaction time 60)?
Answer: 45%

Question: What about the viability at 4000 µM (Scutica; read-out: Viability (%) of Scutica, 4.0 mM, reaction time 70) of the same molecule?
Answer: 30%

Question: What about the viability at 4000 µM (Scutica; read-out: Viability (%) of Scutica, 4.0 mM, reaction time 80) of the same molecule?
Answer: 45%

Question: And the viability at 4000 µM (Scutica; read-out: Viability (%) of Scutica, 4.0 mM, reaction time 90)?
Answer: 40%

Question: And the viability at 4000 µM (Scutica; read-out: Viability (%) of Scutica, 4.0 mM, reaction time 110)?
Answer: 10%

Question: What about the viability at 4000 µM (Scutica; read-out: Viability (%) of Scutica, 4.0 mM, reaction time 120) of the same molecule?
Answer: 10%

Question: And the viability at 8000 µM (Scutica; read-out: Viability (%) of Scutica, 8.0 mM, reaction time 10)?
Answer: 45%

Question: And the viability at 8000 µM (Scutica; read-out: Viability (%) of Scutica, 8.0 mM, reaction time 20)?
Answer: 50%

Question: And the viability at 8000 µM (Scutica; read-out: Viability (%) of Scutica, 8.0 mM, reaction time 30)?
Answer: 45%

Question: And the viability at 8000 µM (Scutica; read-out: Viability (%) of Scutica, 8.0 mM, reaction time 40)?
Answer: 25%

Question: And the viability at 8000 µM (Scutica; read-out: Viability (%) of Scutica, 8.0 mM, reaction time 50)?
Answer: 40%

Question: What about the viability at 8000 µM (Scutica; read-out: Viability (%) of Scutica, 8.0 mM, reaction time 60) of the same molecule?
Answer: 40%

Question: And the viability at 8000 µM (Scutica; read-out: Viability (%) of Scutica, 8.0 mM, reaction time 70)?
Answer: 0%

Question: And the viability at 8000 µM (Scutica; read-out: Viability (%) of Scutica, 8.0 mM, reaction time 80)?
Answer: 0%

Question: What about the viability at 8000 µM (Scutica; read-out: Viability (%) of Scutica, 8.0 mM, reaction time 90) of the same molecule?
Answer: 0%

Question: What about the viability at 8000 µM (Scutica; read-out: Viability (%) of Scutica, 8.0 mM, reaction time 110) of the same molecule?
Answer: 0%

Question: What about the viability at 8000 µM (Scutica; read-out: Viability (%) of Scutica, 8.0 mM, reaction time 120) of the same molecule?
Answer: 0%

Question: And the viability at 15000 µM (Scutica; read-out: Viability (%) of Scutica, 15 mM, reaction time 10)?
Answer: 30%

Question: What about the viability at 15000 µM (Scutica; read-out: Viability (%) of Scutica, 15 mM, reaction time 20) of the same molecule?
Answer: 0%

Question: And the viability at 15000 µM (Scutica; read-out: Viability (%) of Scutica, 15 mM, reaction time 30)?
Answer: 0%

Question: What about the viability at 15000 µM (Scutica; read-out: Viability (%) of Scutica, 15 mM, reaction time 40) of the same molecule?
Answer: 0%

Question: And the viability at 15000 µM (Scutica; read-out: Viability (%) of Scutica, 15 mM, reaction time 50)?
Answer: 0%

Question: What about the viability at 15000 µM (Scutica; read-out: Viability (%) of Scutica, 15 mM, reaction time 60) of the same molecule?
Answer: 0%
